Measurements: patent US20260232827A1, “ANTIBODY-DRUG CONJUGATES TARGETING NAPI2B AND METHODS OF USE” (Zymeworks BC Inc., priority 2023, published 2026)

Legend:
Assay in all cases: Binding region mapping, flow cytometry on transfected HEK293-6e cells
Conditions in all cases: 24 hours at 4° C.
[1] = test system: Construct 1 (chimeric human NaPi2b, region 239-259)
[2] = test system: Construct 3 (chimeric human NaPi2b, region 304-321)
[3] = target: T1, Construct 6 (human NaPi2b deletion, region 317-333) (Homo sapiens, UniProt O95436, DEL317-333)
T1 construct: host or cells: HEK293-6e
T1 sequence (O95436 with tags, fused parts or gaps DEL317-333): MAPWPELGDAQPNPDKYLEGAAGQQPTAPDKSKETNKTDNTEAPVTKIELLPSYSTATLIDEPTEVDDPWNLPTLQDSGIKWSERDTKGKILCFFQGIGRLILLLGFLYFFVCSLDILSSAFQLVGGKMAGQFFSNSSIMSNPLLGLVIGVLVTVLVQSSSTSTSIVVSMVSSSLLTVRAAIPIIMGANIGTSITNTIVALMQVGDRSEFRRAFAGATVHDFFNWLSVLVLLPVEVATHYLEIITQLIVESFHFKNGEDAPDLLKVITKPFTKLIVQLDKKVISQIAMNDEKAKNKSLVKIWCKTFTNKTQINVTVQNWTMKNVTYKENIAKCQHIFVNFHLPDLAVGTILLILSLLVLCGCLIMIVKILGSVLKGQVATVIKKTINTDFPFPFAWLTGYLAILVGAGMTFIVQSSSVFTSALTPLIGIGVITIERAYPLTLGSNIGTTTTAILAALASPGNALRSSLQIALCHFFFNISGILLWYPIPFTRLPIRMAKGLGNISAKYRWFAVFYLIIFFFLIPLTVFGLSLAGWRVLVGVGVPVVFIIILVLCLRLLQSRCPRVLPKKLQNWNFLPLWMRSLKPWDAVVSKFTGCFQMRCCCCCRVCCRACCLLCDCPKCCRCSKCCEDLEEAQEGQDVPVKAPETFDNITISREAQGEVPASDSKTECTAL

Substance: palivizumab [palivizumab (v21995)]
- Background-Subtracted AF647 Mean Fluorescence Intensity ([1]; antibody 2.0 nM): -30
- Background-Subtracted AF647 Mean Fluorescence Intensity ([1]; antibody 20.0 nM): -27
- Background-Subtracted AF647 Mean Fluorescence Intensity ([1]; antibody 200.0 nM): 12
- Background-Subtracted AF647 Mean Fluorescence Intensity ([2]; antibody 2.0 nM): 19
- Background-Subtracted AF647 Mean Fluorescence Intensity ([2]; antibody 20.0 nM): 39
- Background-Subtracted AF647 Mean Fluorescence Intensity ([2]; antibody 200.0 nM): -5
- Background-Subtracted AF647 Mean Fluorescence Intensity ([3]; antibody 2.0 nM): 11
- Background-Subtracted AF647 Mean Fluorescence Intensity ([3]; antibody 20.0 nM): 1
- Background-Subtracted AF647 Mean Fluorescence Intensity ([3]; antibody 200.0 nM): 2
